Results from patent publication US7122563B2, “Derivatives of 4-demethylpenclomedine, use thereof and preparation thereof” (Southern Research Institute, priority 2005, dated 2006).

Assays:
[1] = tested on: U251 human glioblastoma xenograft; assay: Intracranially-implanted U251 human glioblastoma xenograft, survival; assay type: in vivo; conditions: for increase in life span (ILS): intracranially-implanted U251, side-by-side experiment
Excerpt: (§1) Treatment of i.c. implants is initiated 1 day after tumor implantation and continued for 5 days. Mice are monitored daily for survival.

MX-1 Mammary Tumor = assay: MX-1 mammary tumor implanted in the mammary fat pad of mice, i.p. treatment
[2] = rats; cited from earlier work
[3] = Behavioral test of neurotoxicity (tremors); assay type: in vivo; conditions: DM-SMTC-PEN evaluated simultaneously with PEN
Excerpt: A major concern for the penclomedine (PEN) series of derivatives is their possible neurotoxicity. PEN was removed from clinical development as a potential drug for treating breast cancer because of its dose-limiting neurotoxicity.

[4] = after both intravenous and oral administration, related to peak plasma levels; cited from earlier work
[5] = tested on: D54 human glioblastoma multiforme; assay: Intracranially-implanted D54 human glioblastoma multiforme, survival; assay type: in vivo
Excerpt: as §1

[6] = IP 135 mg/kg/dose, Days 13-17, groups of 5 mice
[7] = IP 135 mg/kg/dose, Days 15–19, groups of 5 mice
[8] = IP 60 mg/kg/dose, Days 15–19, groups of 5 mice

**Q.** With COc1nc(C(Cl)(Cl)Cl)c(Cl)c(OC(=S)N(C)C)c1Cl [DM-DMTC-PEN] as the compound, how does the “increase in life span (ILS)” value [1] read?
**A.** 44%

**Q.** And the “Growth Delay (T-C)” value (MX-1 Mammary Tumor; IP 135 mg/kg/dose, Days 13-17)?
**A.** >37.0

**Q.** What about the “Tumor-free Survivors” value (MX-1 Mammary Tumor; IP 135 mg/kg/dose, Days 13-17) of the same compound?
**A.** 3/5

**Q.** And the “Regressions Complete” value (MX-1 Mammary Tumor; [6])?
**A.** 4

**Q.** And the “Regressions Partial” value (MX-1 Mammary Tumor; [6])?
**A.** 1

**Q.** What does the source list for COc1nc(C(Cl)(Cl)Cl)c(Cl)c(OC(=O)Sc2ccccc2)c1Cl [DM-SPTC-PEN]?
**A.** Growth Delay (T-C) (MX-1 Mammary Tumor; IP 135 mg/kg/dose, Days 15–19): >35.2; Tumor-free Survivors (MX-1 Mammary Tumor; IP 135 mg/kg/dose, Days 15–19): 1/5; Regressions Complete (MX-1 Mammary Tumor; [7]): 2; Regressions Partial (MX-1 Mammary Tumor; [7]): 2

**Q.** With CCSC(=O)Oc1c(Cl)c(OC)nc(C(Cl)(Cl)Cl)c1Cl [DM-SETC-PEN] as the compound, how does the “Growth Delay (T-C)” value (MX-1 Mammary Tumor; IP 60 mg/kg/dose, Days 15–19) read?
**A.** >35.2

**Q.** And the “Tumor-free Survivors” value (MX-1 Mammary Tumor; IP 60 mg/kg/dose, Days 15–19)?
**A.** 1/5

**Q.** And the “Regressions Complete” value (MX-1 Mammary Tumor; [8])?
**A.** 2

**Q.** What about the “Regressions Partial” value (MX-1 Mammary Tumor; [8]) of the same compound?
**A.** 3

**Q.** Which results are given for COc1nc(C(Cl)(Cl)Cl)c(Cl)c(O)c1Cl [4-DM-PEN, 3,5-Dichloro-2-methoxy-4-hydroxy-6-(trichloromethyl)pyridine, reference compound]?
**A.** cerebellar damage [2]: cerebellar damage only in the PEN-treated group; Growth Delay (T-C) (MX-1 Mammary Tumor; IP 135 mg/kg/dose, Days 15–19): 32.8; Tumor-free Survivors (MX-1 Mammary Tumor; IP 135 mg/kg/dose, Days 15–19): 0/5; Regressions Complete (MX-1 Mammary Tumor; [7]): 0; Regressions Partial (MX-1 Mammary Tumor; [7]): 2

**Q.** For CCN(CC)C(=S)Oc1c(Cl)c(OC)nc(C(Cl)(Cl)Cl)c1Cl [DM-DETC-PEN], which “Growth Delay (T-C)” value (MX-1 Mammary Tumor; IP 135 mg/kg/dose, Days 15–19) is on record?
**A.** >35.2

**Q.** What about the “Tumor-free Survivors” value (MX-1 Mammary Tumor; IP 135 mg/kg/dose, Days 15–19) of the same compound?
**A.** 1/5

**Q.** What about the “Regressions Complete” value (MX-1 Mammary Tumor; [7]) of the same compound?
**A.** 1

**Q.** And the “Regressions Partial” value (MX-1 Mammary Tumor; [7])?
**A.** 1

**Q.** Which “neurotoxicity (production of tremors)” value [3] does the source give for COc1nc(C(Cl)(Cl)Cl)c(Cl)c(OC)c1Cl [PEN, 3,5-dichloro-2,4-dimethoxy-6-(trichloromethyl) pyridine] here?
**A.** production of tremors

**Q.** What about the “neurotoxicity in clinical trials” value [4] of the same compound?
**A.** dose-limiting neurotoxicity was observed

**Q.** And the cerebellar damage [2]?
**A.** cerebellar damage only in the PEN-treated group

**Q.** With COc1nc(C(Cl)(Cl)Cl)c(Cl)c(OC(=O)SC)c1Cl [DM-SMTC-PEN] as the compound, how does the “activity against intracranially-implanted U251” value ([1]; compared with the acyl derivatives) read?
**A.** comparably active to the acyl derivatives

**Q.** What about the “increase in life span (ILS)” value [1] of the same compound?
**A.** 56%

**Q.** What about the “increase in life span” value [5] of the same compound?
**A.** 18%

**Q.** And the “neurotoxicity (production of tremors)” value [3]?
**A.** non-neurotoxic

**Q.** And the “Growth Delay (T-C)” value (MX-1 Mammary Tumor; IP 60 mg/kg/dose, Days 15–19)?
**A.** >41.6

**Q.** And the “Tumor-free Survivors” value (MX-1 Mammary Tumor; IP 60 mg/kg/dose, Days 15–19)?
**A.** 2/5

**Q.** What about the “Regressions Complete” value (MX-1 Mammary Tumor; [8]) of the same compound?
**A.** 2

**Q.** What about the “Regressions Partial” value (MX-1 Mammary Tumor; [8]) of the same compound?
**A.** 2
